One series is described as follows: in vivo. As to conditions: rat. The procedure: AC-92 was prepared in DMSO and diluted in sterile phosphate buffered saline (final DMSO concentration 1.0%). […] Animals were sacrificed at 3 and 6 hours after dosing via lethal narcosis. Blood was sampled via cardiac puncture. Serum was prepared by allowing whole blood to stand at 4° C. for 60 min; plasma was prepared using heparin as the anti-coagulant. CSF was collected via the foramen magnum immediately after sacrifice. Brain material was collected by opening of the skull and simple excision of the right cortex. Samples were snap frozen using liquid nitrogen immediately after collection. All procedures were conducted in conformity with applicable German and EU laws on animal experimentation and the study was approved by a government appointed ethics committee.
To determine the extent of central exposure, bioavailability studies were undertaken.

Another series relates to hAPP Tg mice (APP751S/L). As to the kind of experiment: Morris Water Maze in hAPP Tg mice. The conditions noted are these: for probe trial: crossings over the former target position: 1 mg/kg, versus Tween 80 vehicle group; for performance in Morris Water Maze: other concentration of AC-91 (not 1 or 20 mg/kg) or Compounds B. It counts as in vivo, mouse. The procedure: Therefore, mice were treated for 33 days and in the end of the treatment period behavior was evaluated in the Morris Water Maze and additionally a Object Recognition Task.
Female Tg and nTg mice with a C57BL/6×DBA background and an age of 7 months (±2 week) were randomly assigned to treatment groups 1 to 9 (n=20 for groups 3 to 7, n=15 for groups 1, 2, 8 and 9). […] All animals which were used for the present study had dark eyes and were likely to perceive the landmarks outside the MWM pool. However, it had to be excluded that seeing abilities of an animal were poor, which was controlled in the visible platform training, the so called pretest, before treatment start for all animals including reserves enclosed to the study. In case a seeing handicap for a specific animal would have been affirmed, the mouse would have been excluded from the study.
Compounds or vehicle were administered via oral gavage in a daily volume of 10 ml/kg/b.w. for 33 days.
The Morris Water Maze task was conducted in a black circular pool of a diameter of 100 cm. Tap water was filled in with a temperature of 22±1° C. and the pool was virtually divided into four sectors. A transparent platform (8 cm diameter) was placed about 0.5 cm beneath the water surface. During the whole test session, except the pretest, the platform was located in the southwest quadrant of the pool.
One day before the 4 days lasting training session animals had to perform a so called “pre-test” (two 60 sec lasting trials) to ensure that the seeing abilities of each animal were normal. Only animals that fulfilled this task were enclosed to the MWM testing.
In the MWM task, each mouse had to perform three trials on four consecutive days. A single trial lasted for a maximum of one minute. During this time, the mouse had the chance to find the hidden, diaphanous target. If the animal could not find a “way” out of the water, the investigator guided to or placed the mouse on the platform. After each trial mice were allowed to rest on the platform for 10-15 sec.
During this time, the mice had the possibility to orientate in the surrounding. Investigations took place under dimmed light conditions, to prevent the tracking system from negative influences (Kaminski; PCS, Biomedical Research Systems). On the walls surrounding the pool, posters with black, bold geometric symbols (e.g. a circle and a square) were fixed which the mice could use the symbols as landmarks for their orientation.
One swimming group per trial consisted of five to six mice, so that an intertrial time of about five to ten minutes was ensured. For the quantification of escape latency (the time [second]−the mouse needed to find the hidden platform and therefore to escape from the water), of pathway (the length of the trajectory [meter] to reach the target) and of the abidance in the goal quadrant a computerized tracking system was used. The computer was connected to a camera placed above the centre of the pool. The camera detected the signal of the light emitting diode (LED), which was fixed with a little hairgrip on the mouse's tail.
Twenty-four hours after the last trial on day 4 the mice had to fulfil a so-called probe trial. At this time, the platform was removed from the pool and during the one-minute probe trial; the experimenter counted the number of crossings over the former target position. Additionally the abidance in this quadrant as well as the three other quadrants was calculated. Through out this trial a mouse could not get any, howsoever natured, clue from the platform.

In a further series the test system is APPPS1 transgenic mice. Briefly: Plaque load, plaque volume and area in APPPS1 transgenic model for cerebral amyloidosis. It counts as in vivo, mouse. As to conditions: for increase of amyloid load as % of that expected with normal progression of the model: AC-92 after 3 months, AC-91 at month 5; for plaque volume and area smaller than vehicle-treated controls: APPPS1 mice. The procedure: The transgenic model and corresponding […] analysis of brain sections was provided by Prof. Mathias Jucker, Department of Cellular Neurology, Hertie-Institute for Clinical Brain Research University of Tübingen, Otfried-Müller Strasse 27, D-72076 Tübingen, Germany. APPPS1 transgenic mice express both KM670/671NL mutated human APP and L166P mutated human PS1 under the Thy-1 promoter element (Radde et al., 2005). They were treated with the compounds from the age of 126 days after birth (DAB) to 158 DAB. […] On completion of the dosing period, animals were sacrificed by lethal narcosis followed by collection of blood by cardiac puncture and recovery of brain material for sectioning and extraction of drug and relevant peptides. […] Brains were removed and postfixed at 4° C. in 4% PFA, dehydrated in 30% sucrose, and frozen. Serial coronal serial 40 μm sections were cut with a microtome and collected in cryoprotectant (30% glycerol, 45% ethylene glycol in PBS) and stored at −20° C. until use.
Free-floating sections were processed for immunohistochemistry as described elsewhere (Stalder et al., 2005). Briefly, sections were washed in TBS and blocked with 3% goat or donkey serum (Vector Laboratories Inc., Burlingame, Calif.) in 0.3% Triton-X-100 (Fisher, Fair Lawn, N.J.). The sections were incubated overnight with primary antibodies at 4° C. in 2% serum and 0.3% Triton-X-100, washed three times with TBS and incubated for 3 hours with biotin-conjugated secondary antibodies. After repeated TBS washing, sections were stained by complexing with SG blue (Vectastain ABC elite kit; Vector Laboratories). Sections were mounted on precleaned glass microscope slides (Superfrost® Plus; Langenbrinck, Teningen, Germany), dehydrated with an alcohol series, cleared in xylene and coverslipped in a xylene soluble mounting medium (Pertex®, medite GmbH, Burgdorf, Germany). Amyloid load was estimated on every 12th section throughout the entire neocortex.
In vivo experiments were performed using a very aggressive double transgenic mouse model for cerebral amyloidosis (Radde et al., 2006). APPPS1 transgenic mice expressing both KM670/671NL mutated human APP and L166P mutated human PS1 under the Thy-1 promoter element (Radde et al., 2005) were treated with the compounds from the age of 126 days after birth (DAB) to 158 DAB. Mice were treated as described in A3. above. On completion of the dosing period, samples were taken from the animals and snap frozen using liquid nitrogen as reported herein previously (see Section A3. above).
In the model, plaque load in the brain is known to increase roughly exponentially with age (Radde et al., 2005). […] These conditions should be suitable to provide insight, whether initial formation of plaques or downstream processes reversing existing plaque loads are involved in corresponding drug effects.

Series [1] is classed as in vivo. The conditions noted are these: daily oral gavage, 33 days; AC-91 in four different concentrations.
Text: In total 171 female hAPP Tg and nTg mice with an age of 6.5 months at treatment start were enclosed to study.
The nature of series [2]: ACI-91 and ACI-92 levels in plasma, CSF and brain homogenates of transgenic mice. The format is in vivo, mouse. As to conditions: for concentration in brain as % of plasma concentration / Kp at 33 days: 100 mg/kg ACI-91 or 50 mg/kg ACI-92, 33 days; for Kp at 33 days: mouse, brain homogenate, oral, read-out: concentration in brain as % of plasma concentration. The procedure: Determination of ACI-91 and ACI-92 in mouse plasma, CSF and brain homogenate samples was done by HPLC-MS/MS by Quality Assistance SA, Technoparc de Thudinie 2, B-6536 Donstiennes, Belgium.
The amounts of ACI-91 and of ACI-92 in plasma, CSF and in brain homogenates is determined after treatment of hAPP single transgenic mice (JSW, Graz) and hAPP-PS1 double-transgenic mice (Synovo, Tübingen), respectively, for 33 days with doses of 1, 5, 20 and 100 mg/kg of ACI-91 and 50 mg/kg ACI-92 and doses of 100 mg/kg of ACI-91 and 50 mg/kg ACI-92, respectively.

“Also recorded” adds a separate entry of the source. Read-outs that look alike come from different tables or passages of the source.

Consider 3 molecules from patent US20100247688A1 (priority 2007, published 2010).

As to `O=C1Nc2cccnc2N(C(=O)CN2CCNCC2)c2ccccc21` [des-methyl-AC-91], the “detection in CSF” value in “in vivo” (po, 50 mg/kg) is “No AC-91 or dm-AC-91 was detected”.
As for `CN1CCN(CC(=O)N2c3ccccc3C(=O)Nc3cccnc32)CC1` [AC-91, pirenzepine], the “escape latency in Morris Water Maze” value in the series with hAPP Tg mice (APP751S/L) (1 mg/kg daily oral, 33 days) is recorded as “reduced relatively to the historic group”; in the series on hAPP Tg mice (APP751S/L) (20 mg/kg daily oral, 33 days), “comparable escape latency to the ntg vehicle treated mice; also recorded: reduced relatively to the historic group”; with hAPP Tg mice (APP751S/L) (20 mg/kg daily oral, 33 days, listed as formula II), “comparable escape latency to the non transgenic vehicle treated mice”. Also, the “probe trial: crossings over the former target position” value in the series on hAPP Tg mice (APP751S/L) is listed as “significantly (p<0.05) more often”; in the series with hAPP Tg mice (APP751S/L) (listed as formula II), “significantly more often”. In the series on hAPP Tg mice (APP751S/L) (dose escalation to 100 mg/kg), the memory performance entry was “didn't improve memory performance”. Also, the “performing the Morris Water Maze task compared to the historic group” value in the series on hAPP Tg mice (APP751S/L) (hAPP Tg mice, 33 days) was “led to an improvement”. The “performance in Morris Water Maze” value in the series with hAPP Tg mice (APP751S/L) is listed as “weak performance similar to that observed in the historic tg group”. In addition, the half-life in the series “in vivo” (male, Lewis, po) is ~12 h.
Regarding `O=C1Nc2cccnc2Nc2ccccc21` [AC-92, LS-75], in the series with hAPP Tg mice (APP751S/L) (AC-92 treated mice), the “Morris Water Maze / probe trial versus Tween 80 vehicle mice” value is “no difference to the Tween 80 mice”. In addition, the “performance in Morris Water Maze” value in the series with hAPP Tg mice (APP751S/L) is given as “weak performance similar to that observed in the historic tg group”. The figures for the “increase of amyloid load as % of that expected with normal progression of the model” value in the series with APPPS1 transgenic mice and in the series on APPPS1 transgenic mice (listed as formula III) were 55% and “about 60%”, respectively. In addition, the “plaque volume and area smaller than vehicle-treated controls” value in the series with APPPS1 transgenic mice (month 2-3) and in the series with APPPS1 transgenic mice (month 4-5) was “about 26%” each time. In addition, the β-amyloid plaque load result in the series on APPPS1 transgenic mice (daily p.o. 50 mg/kg AC-92 or 100 mg/kg AC-91 for one month, between months 1 and 5 after birth) is “substantial reductions”. The amyloid load in the series with APPPS1 transgenic mice (treated animals after 3 months, 50 mg/kg daily p.o.) amounted to 0.61%. Further, the “tolerability of the treatment” value in series [1] was “well tolerated”. The “concentration in brain as % of plasma concentration” value in series [2] (4 months old double transgenic mice) is “about 5%”; in series [2] (8 months old single transgenic mice), 11%. Further, in series [2] (4 months old double transgenic mice, listed as ACI92), the “concentration in CSF as % of plasma concentration” value is listed as 20%. In addition, the Kp at 33 days in series [2] (hAPP single transgenic, 8 months old single transgenic mice) was ~0.11; in series [2] (hAPP-PS1 double-transgenic, 4 months old double transgenic mice), ~0.05. For the same molecule, the Kp in “in vivo” (male, Lewis, ip, 50 mg/kg) was ~0.25. In “in vivo” (male, Lewis, po, 50 mg/kg), the concentration at 3 h was ~20 nM. Further, the concentration at 6 h in the series “in vivo” (male, Lewis, po, 50 mg/kg) was ~75 nM. In the series “in vivo” (po), the “enrichment in the brain” value was “enriched in the brain to a certain extent”.

One may read the half-life as the time in which the quantity being followed falls by half. Low values mean rapid decline, high ones slow decline.
